From patent US20250282820A1, “PEPTIDE COMPLEX HAVING TRKB BINDING ACTIVITY” (PEPTIDREAM INC, priority 2022, published 2025)
*1 amine or outer side, *2 acyl side, *3 side chain or, on linkers, in order; H or OH if unused. Where a SMILES comes first, the peptide text is derived from it. Bridges are numbered along the chain shown (N, C = ends). Roman numbers before positions name the chains, in order. [ ]: non-standard residue; d: D form. PEG8 = NCCOCCOCCOCCOCCOCCOCCOCCOCCC(=O)O; 3Pal = N[C@@H](Cc1cccnc1)C(=O)O; X2 = O=C(CCOCCC(=O)[*:2])[*:1]

Assays:
Type in all cases: cell-based
TrkB = TrkB (Homo sapiens, UniProt Q16620); test: PathHunter eXpress TrkB Functional Assay (phosphorylation of TrkB); conditions: maximum signal induced by BDNF = 100%; stimulation for 3 hours
In short: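 PathHunter TrkB cells, cultured 48 h, were stimulated 3 h with peptide or BDNF, then detection reagent added for 60 min at room temperature; luminescence read. Activity (%) scaled from unstimulated (0%) to maximal BDNF signal (100%); peptides tested over 0.006104-100 nM, 0.032-100 nM or 0.01-10 nM ranges.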

[1] = target: T1, TrkB (CellSensor TrkB-NFAT-bla CHO-K1 Cell) (Homo sapiens, UniProt Q16620); test: NFAT transcriptional reporter assay for TrkB agonist activity; conditions: class = peptide concentration giving 50% or more activity; BDNF maximum signal = 100%, no stimulation = 0%; 5 hours culture
T1 construct: host or cells: CHO-K1 (CellSensor TrkB-NFAT-bla CHO-K1)
In short: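 CHO-K1 TrkB-NFAT-bla cells, 12,500 per well, treated overnight-seeded with peptide or BDNF for 5 h, then CCF4-AM substrate 2 h in the dark; 460/535 nm emission ratio. Activity scaled to maximal BDNF signal (100%) and unstimulated (0%); grades A/B/C mean ≥50% activity at 1, 10 or 100 nM.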

[2] = target: T1, TrkB (CellSensor TrkB-NFAT-bla CHO-K1 Cell); test: pERK1/2 AlphaLISA assay (phosphorylation of ERK) for TrkB agonist activity; conditions: class = peptide concentration giving 50% or more activity; BDNF maximum signal = 100%, no stimulation = 0%; 15 minutes of stimulation
In short: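 TrkB-NFAT-bla CHO-K1 cells were starved 4 h in 0.1% BSA medium and then stimulated 15 min with peptide or BDNF; p-ERK1/2 (Thr202/Tyr204) in the lysate was read by AlphaLISA SureFire. Activity % was scaled to the BDNF maximum (100%) and no stimulation (0%); A = ≥50% at 1 nM, B = ≥50% at 10 nM; curves were 8 points, 4-fold dilutions from 100 nM.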

T1 sequence (Q16620 32-822): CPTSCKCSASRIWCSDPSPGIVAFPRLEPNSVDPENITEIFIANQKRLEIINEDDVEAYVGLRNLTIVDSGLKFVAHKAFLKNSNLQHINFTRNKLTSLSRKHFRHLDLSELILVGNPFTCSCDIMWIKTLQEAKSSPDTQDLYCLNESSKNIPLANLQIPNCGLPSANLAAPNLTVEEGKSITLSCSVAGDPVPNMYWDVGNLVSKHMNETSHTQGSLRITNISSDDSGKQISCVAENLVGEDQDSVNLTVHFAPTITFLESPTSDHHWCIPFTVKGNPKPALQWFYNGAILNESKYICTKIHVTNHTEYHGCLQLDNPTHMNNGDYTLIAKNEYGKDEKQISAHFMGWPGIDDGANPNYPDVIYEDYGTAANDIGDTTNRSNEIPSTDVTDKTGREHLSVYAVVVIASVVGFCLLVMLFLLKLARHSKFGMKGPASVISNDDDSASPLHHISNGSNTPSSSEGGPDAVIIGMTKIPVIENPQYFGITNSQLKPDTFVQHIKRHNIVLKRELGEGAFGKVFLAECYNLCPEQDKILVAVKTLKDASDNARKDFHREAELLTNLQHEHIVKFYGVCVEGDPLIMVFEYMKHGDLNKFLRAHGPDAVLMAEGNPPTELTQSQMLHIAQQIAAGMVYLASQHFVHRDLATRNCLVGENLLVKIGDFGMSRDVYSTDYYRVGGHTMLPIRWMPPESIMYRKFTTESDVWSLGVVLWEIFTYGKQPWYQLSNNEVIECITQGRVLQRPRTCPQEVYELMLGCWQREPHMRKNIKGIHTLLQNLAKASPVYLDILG
Sequence of TrkB (Q16620 32-822): as above

| Compound | Emax (TrkB) [%] | NFAT Assay Results [1] | pERK (aLISA) Assay Results [2] |
| --- | --- | --- | --- |
| CC(C)[C@@H]1NC(=O)[C@H](Cc2cccnc2)NC(=O)[C@H](CCC(=O)O)NC(=O)[C@H](CO)NC(=O)[C@H](Cc2ccc(O)cc2)NC(=O)[C@H]([C@@H](C)O)NC(=O)[C@@H]2CCCN2C(=O)[C@H](Cc2c[nH]c3ccccc23)NC(=O)[C@H](Cc2cccnc2)NC(=O)[C@H](Cc2ccc(O)cc2)NC(=O)[C@@H]2CCCN2C(=O)[C@H](CCC(=O)O)NC(=O)[C@H](Cc2ccccc2)NC(=O)CSC[C@@H](C(=O)NCC(=O)NCCOCCOCCOCCOCCOCCOCCOCCOCCC(=O)NCCCC[C@H](NC(=O)CCOCCOCCOCCOCCOCCOCCOCCOCCNC(=O)CNC(=O)[C@@H]2CSCC(=O)N[C@@H](Cc3ccccc3)C(=O)N[C@@H](CCC(=O)O)C(=O)N3CCC[C@H]3C(=O)N[C@@H](Cc3ccc(O)cc3)C(=O)N[C@@H](Cc3cccnc3)C(=O)N[C@@H](Cc3c[nH]c4ccccc34)C(=O)N3CCC[C@H]3C(=O)N[C@@H]([C@@H](C)O)C(=O)N[C@@H](Cc3ccc(O)cc3)C(=O)N[C@@H](CO)C(=O)N[C@@H](CCC(=O)O)C(=O)N[C@@H](Cc3cccnc3)C(=O)N[C@@H](C(C)C)C(=O)N[C@@H](CO)C(=O)N2)C(N)=O)NC(=O)[C@H](CO)NC1=O [compound 18] (I: {CH2CO}-FEPY[3Pal]WPTYSE[3Pal]VSCG[PEG8]K-NH2 / II: {CH2CO}-FEPY[3Pal]WPTYSE[3Pal]VSCG[PEG8]; amide I:18-II:C (inferred); thioether I:N-I:15, II:N-II:15 (inferred)) | 93 | A (The peptide with 50% or more activity when 1 nM of the peptide was added was evaluated as A) | A (The peptide with 50% or more activity when 1 nM of the peptide was added was evaluated as A) |
| CC(C)[C@@H]1NC(=O)[C@H](Cc2cccnc2)NC(=O)[C@H](CCC(=O)O)NC(=O)[C@H](CO)NC(=O)[C@H](Cc2ccc(O)cc2)NC(=O)[C@H]([C@@H](C)O)NC(=O)[C@@H]2CCCN2C(=O)[C@H](Cc2c[nH]c3ccccc23)NC(=O)[C@H](Cc2cccnc2)NC(=O)[C@H](Cc2ccc(O)cc2)NC(=O)[C@@H]2CCCN2C(=O)[C@H](CO)NC(=O)[C@H](Cc2ccccc2)NC(=O)CSC[C@@H](C(=O)NCC(=O)NCCOCCOCCOCCOCCOCCOCCOCCOCCC(=O)N[C@@H](CCCCNC(=O)CCOCCC(=O)NCCCC[C@H](NC(=O)CCOCCOCCOCCOCCOCCOCCOCCOCCNC(=O)CNC(=O)[C@@H]2CSCC(=O)N[C@@H](Cc3ccccc3)C(=O)N[C@@H](CO)C(=O)N3CCC[C@H]3C(=O)N[C@@H](Cc3ccc(O)cc3)C(=O)N[C@@H](Cc3cccnc3)C(=O)N[C@@H](Cc3c[nH]c4ccccc34)C(=O)N3CCC[C@H]3C(=O)N[C@@H]([C@@H](C)O)C(=O)N[C@@H](Cc3ccc(O)cc3)C(=O)N[C@@H](CO)C(=O)N[C@@H](CCC(=O)O)C(=O)N[C@@H](Cc3cccnc3)C(=O)N[C@@H](C(C)C)C(=O)N[C@@H](CCC(=O)O)C(=O)N2)C(N)=O)C(N)=O)NC(=O)[C@H](CCC(=O)O)NC1=O [compound 33] (I: {CH2CO}-FSPY[3Pal]WPTYSE[3Pal]VECG[PEG8]K-NH2 / II: {CH2CO}-FSPY[3Pal]WPTYSE[3Pal]VECG[PEG8]K-NH2; linker I:18-II:18 via X2; thioether I:N-I:15, II:N-II:15) | 96 | A (The peptide with 50% or more activity when 1 nM of the peptide was added was evaluated as A) | A (The peptide with 50% or more activity when 1 nM of the peptide was added was evaluated as A) |
